Results from patent US7553823B2, “C-pyrazole A2A receptor agonists” (CV Therapeutics, Inc., priority 1999, dated 2009).
Read-outs that look alike come from different tables or passages of the source.

Columns and labels:
A2A AdoR [1] = assay: Coronary blood flow and reversal time of coronary vasodilation in open-chest anesthetized pigs; conditions: pig
Method: Farm pigs weighing 22-27 kg were used in this study. […] In addition, animals were used in accordance with the guidelines of the University of Kentucky Institutional Animal Care and Use Protocol.
Anesthesia was anesthetized with ketamine (20 mg/kg, i.m.) and sodium pentobarbital (15-18 mg/kg i.v.). Anesthesia was maintained with additional sodium pentobarbital (1.5-2 mg/kg, i.v.) every 15-20 minutes. Ventilation was maintained via a tracheotomy using a mixture of room air and 100% O2. Tidal volume, respiratory rate and fraction of O2 in inspired air were adjusted to maintain normal arterial blood gas (ABG) and pH values. […] Lactate Ringers solution was administered via an ear or femoral vein, at 5-7 ml/kg/min after a initial bolus of 300-400 ml. A catheter was inserted into the femoral artery to monitor arterial blood pressure and to obtain ABG samples.
The heart was exposed through a median sternotomy, and suspended in a pericardial cradle. Left ventricular pressure (LVP) was measured with a 5F high fidelity pressure sensitive tip transducer (Millar Instruments, Houston, Tex.) placed in the left ventricular cavity via the apex and secured with a purse string suture. A segment of the left anterior descending coronary artery (LAD), proximal to the origin of the first diagonal branch, was dissected free of, surrounding tissue. A transmit time perivascular flow probe (Transonic Systems Inc., Ithaca, N.Y.) was placed around this segment to measure coronary blood flow (CBF). Proximal to the flow probe a 24 g modified angiocatheter was inserted for intracoronary infusions. […] A2A AdoR agonists were dissolved in DMSO to produce stock concentrations of 1-5 mM, which were diluted in 0.9% saline and infused at rates of 1-1.5 ml/min. The A2A AdoR agonists were administered intracoronary. To maintain blood pressure constant, phenylephrine was administered intravenously. The phenylephrine stock solution (30 mM) was prepared in distilled water.
Prior to initiating the experiment, a 30-minute stabilization period followed the completion of all instrumentation. After obtaining the baseline hemodynamic data the first intracoronary infusion of an A2A ADOR agonist was initiated. Infusions were maintained for 4-5 minutes to allow LAD CBF to reach a steadystate, after which the infusion was terminated. The time to recovery of 50% (t 0.5) and 90% (t 0.9) of baseline CBF were recorded. Ten to 15 minutes after CBF returned to pre-drug values a second infusion with a different agonist was started. […] The effect of a maximum of three different agonists was determined in each experiment.

A2A adenosine receptor = A2A adenosine receptor (Rattus norvegicus, UniProt P30543); assay: Reversal time of coronary vasodilation after bolus injection in rat isolated perfused hearts
A2A adenosine receptor, sequence (P30543 whole entry, the tested form may be a part): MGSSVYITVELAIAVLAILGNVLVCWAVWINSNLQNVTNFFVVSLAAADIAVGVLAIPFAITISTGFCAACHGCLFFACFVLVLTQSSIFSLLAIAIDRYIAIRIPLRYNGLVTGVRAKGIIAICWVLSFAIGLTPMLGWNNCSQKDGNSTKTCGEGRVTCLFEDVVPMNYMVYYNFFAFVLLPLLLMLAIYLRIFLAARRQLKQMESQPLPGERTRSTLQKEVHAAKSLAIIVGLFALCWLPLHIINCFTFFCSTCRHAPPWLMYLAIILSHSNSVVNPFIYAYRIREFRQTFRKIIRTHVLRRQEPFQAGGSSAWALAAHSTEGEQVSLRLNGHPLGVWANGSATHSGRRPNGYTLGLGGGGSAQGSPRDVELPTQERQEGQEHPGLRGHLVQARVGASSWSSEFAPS
Method: Animals were anesthetized by peritoneal injection of a cocktail containing ketamine and xylazine (ketamine 100 mg, xylazine 20 mg/ml). The chest was opened and the heart quickly removed. The heart was briefly rinse in ice-cold Krebs-Henseleit solution (see below), and the aorta cannulated. […] The heart was electrically paced at a fixed cycle length of 340 ms (250 beats/min) using a bipolar electrode place on the left atrium. The electrical stimuli were generated by a Grass stimulator (Model S48, W. Warwick, R.I) and delivered through a Stimuli Isolation Unit (Model SIU5, Astro-Med, Inc., NY) as square-wave pulses of 3 msec in duration and amplitude of at least twice the threshold intensity.
Coronary perfusion pressure (CPP) was measured using a pressure transducer, connected to the aortic cannula via a T-connector positioned approximately 3 cm above the heart. Coronary perfusion pressure was monitored throughout the experiment and recorded either on a chart recorder (Gould Recorder 2200S) or a computerized recording system (PowerLab/4S, ADInstruments Pty Ltd, Australia). Only hearts with CPP ranging from 60 to 85 mmHg (in the absence of drugs) were used in the study.
Protocol: Bolus injections. […] The times to 50% (t 0.5) and 90% (t 0.9) reversal of the decrease in CPP were measured. Each heart was exposed to a maximum of three vasodilators.

A2A AdoR [2] = molecular target: A2A AdoR (Rattus norvegicus, UniProt P30543); assay: Increase of coronary conductance in rat isolated perfused hearts
A2A AdoR (Rattus norvegicus, UniProt P30543), sequence (P30543 whole entry, the tested form may be a part): as above
Method: (§1) Adult Sprague Dawley rats and Hartley guinea pigs of either sex weighing from 230 to 260 grams and 300 to 350 grams, respectively were used in this study. Animals were anesthetized by peritoneal injection of a cocktail containing ketamine and xylazine (ketamine 100 mg, xylazin 20 mg/ml). The chest was opened and the heart quickly removed. The heart was briefly rinse in ice-cold Krebs-Henseleit solution (see below), and the aorta cannulated. […] The heart was electrically paced at a fixed cycle length of 340 ms (250 beats/min) using a bipolar electrode place on the left atrium. The electrical stimuli were generated by a Grass stimulator (Model S48, W. Warwick, R.I.) and delivered through a Stimuli Isolation Unit (Model SIU5, Astro-Med, Inc., NY) as square-wave pulses of 3-msec in duration and amplitude of at least twice the threshold intensity.
Coronary perfusion pressure (CPP) was measured using a pressure transducer, connected to the aortic cannula via a T-connector positioned approximately 3 cm above the heart. Coronary perfusion pressure was monitored throughout the experiment and recorded either on a chart recorder (Gould Recorder 2200S) or a computerized recording system (PowerLab/4S, ADinstruments Pty Ltd, Australia). Only hearts with CPP ranging from 60 to 85 mmHg (in the absence of drugs) were used in the study.
One concentration was made from the stock solution by dilution into saline to yield solution of either 2×10^−4 or 2×10^−5 M. These solutions were injected into the perfusion line of the apparatus as boluses of 20 μl. In some experiments the solutions were placed into a 30 ml glass syringe and the drugs were infused at rates necessary to achieve the desired perfusate concentrations (e.g, 10, 100 nM, etc).
Hearts were instrumented for continuous recording of coronary perfusion pressure (A2A response) and atrioventricular (A-V) conduction time or S-H interval (A1 response).

A2A receptor = A2A receptor (Sus scrofa, UniProt K9IW67); assay: Affinity for the A2A receptor in a pig striatum membrane prep (displacement of tritiated ZM 241385); assay type: binding
A2A receptor, sequence (K9IW67 1-409): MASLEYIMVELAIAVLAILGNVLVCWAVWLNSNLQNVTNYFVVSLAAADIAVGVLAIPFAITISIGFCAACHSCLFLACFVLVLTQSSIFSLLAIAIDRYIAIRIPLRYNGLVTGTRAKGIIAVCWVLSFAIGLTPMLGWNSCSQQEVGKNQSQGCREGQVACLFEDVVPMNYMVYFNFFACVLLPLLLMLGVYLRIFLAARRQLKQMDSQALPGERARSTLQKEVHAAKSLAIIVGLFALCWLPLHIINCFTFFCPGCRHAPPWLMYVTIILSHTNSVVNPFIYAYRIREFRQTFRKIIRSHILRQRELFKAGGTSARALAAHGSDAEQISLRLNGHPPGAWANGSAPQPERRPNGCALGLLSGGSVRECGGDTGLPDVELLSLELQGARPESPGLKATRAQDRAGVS
Method: Compounds of this invention were assayed to determine their affinity for the A2A receptor in a pig striatum membrane prep. Briefly, 0.2 mg of pig striatal membranes were treated with adenosine deaminase and 50 mM Tris buffer (pH=7.4) followed by mixing. […] After incubation at 23 C for 2 h, then the solutions were filtered using a membrane harvester using multiple washing of the membranes (3×). The filter disks were counted in scintillation cocktail affording the amount of displacement of tritiated ZM by the competitive binding compounds of this invention. Greater than a 5 point curve was used to generate IC50's and the number of experiments is indicated in the column marked in Table 1 below.

human A2A AdoR = human A2A AdoR (Homo sapiens, UniProt P29274); assay: Competition binding, [3H]ZM241385 binding sites on HEK-hA2AAR cell membranes; conditions: for Ki: HEK-hA2AAR Cells
human A2A AdoR, sequence (P29274 whole entry): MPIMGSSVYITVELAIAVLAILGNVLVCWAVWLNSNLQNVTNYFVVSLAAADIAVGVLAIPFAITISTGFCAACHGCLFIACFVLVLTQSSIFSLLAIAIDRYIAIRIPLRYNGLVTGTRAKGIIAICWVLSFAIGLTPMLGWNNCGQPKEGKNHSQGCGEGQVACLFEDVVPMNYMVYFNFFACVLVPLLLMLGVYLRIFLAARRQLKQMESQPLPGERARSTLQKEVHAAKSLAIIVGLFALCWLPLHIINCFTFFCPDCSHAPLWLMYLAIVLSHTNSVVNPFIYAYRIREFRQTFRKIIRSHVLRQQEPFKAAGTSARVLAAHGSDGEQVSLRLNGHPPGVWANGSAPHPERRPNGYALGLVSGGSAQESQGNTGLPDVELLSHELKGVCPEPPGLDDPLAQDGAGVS
Method: To make membranes, cells were detached from the culture plates into ice-cold 50 mmol/L Tris-HCI buffer (pH7.4). The cell suspensions were homogenized with Polytron at setting 4 for 30 seconds, and spun at 48,000 g for 15 minutes. The pellets were washed three times by re-suspension in ice-cold Tris-HCI buffer and centrifugation. The final pellet was re-suspended in a small volume of Tris-HCI, aliquoted and frozen at −80° C. until used for receptor binding assays. The protein concentration of membrane suspensions was determined using the Bradford method (Bio-Rad) with bovine serum as standards.
At the end of incubation, bound and free radioligands were separated by filtration through Whatman GF/C glass fiber filters using a Brandel tissue harvester (Gaithersburg, Md.). Triplicate determinations were performed for each concentration of the competing agent.
The affinity (Ki) of various CVT compounds for the A1 and A2A adenosine receptor were determined by their potency to compete for [^3H]CPX (A1) or [^3H]ZM241385 (A2A) binding sites on membranes derived from CHO-hA1AdoR, PC12 or HEK-HA2AAdoR cells.

human A1 AdoR = molecular target: T1, human A1 AdoR (Homo sapiens, UniProt P30542); assay: Competition binding, [3H]DPCPX binding sites on CHO-hA1AdoR cell membranes; conditions: Gpp(NH)p 100 μM
T1 construct: expressed in transfected cells
T1 sequence (P30542 1-326): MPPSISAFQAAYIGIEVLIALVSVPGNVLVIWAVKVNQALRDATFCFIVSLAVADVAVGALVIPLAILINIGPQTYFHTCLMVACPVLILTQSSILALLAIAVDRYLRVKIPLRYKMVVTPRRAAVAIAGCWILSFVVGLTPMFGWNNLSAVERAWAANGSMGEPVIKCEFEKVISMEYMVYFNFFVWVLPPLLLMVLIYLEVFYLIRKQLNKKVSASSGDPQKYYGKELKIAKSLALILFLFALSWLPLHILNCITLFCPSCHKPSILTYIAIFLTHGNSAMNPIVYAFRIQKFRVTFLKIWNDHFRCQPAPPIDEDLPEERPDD

A2A AdoR [3] = molecular target: A2A AdoR (Cavia porcellus, UniProt P46616); assay: Increase of coronary conductance in guinea pig isolated perfused hearts
A2A AdoR (Cavia porcellus, UniProt P46616), sequence (P46616 whole entry, the tested form may be a part): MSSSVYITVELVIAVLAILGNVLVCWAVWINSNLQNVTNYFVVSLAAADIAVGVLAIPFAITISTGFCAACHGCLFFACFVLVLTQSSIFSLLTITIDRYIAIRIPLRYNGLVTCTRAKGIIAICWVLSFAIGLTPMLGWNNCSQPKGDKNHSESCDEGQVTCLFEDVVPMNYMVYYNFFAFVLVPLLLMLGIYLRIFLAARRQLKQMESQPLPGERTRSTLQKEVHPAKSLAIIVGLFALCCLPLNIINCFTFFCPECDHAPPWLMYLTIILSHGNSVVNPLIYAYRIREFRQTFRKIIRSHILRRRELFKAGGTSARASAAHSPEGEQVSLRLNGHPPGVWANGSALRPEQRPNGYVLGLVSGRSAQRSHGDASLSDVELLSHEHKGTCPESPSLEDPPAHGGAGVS
Method: as §1
Coronary perfusion pressure (CPP) was measured using a pressure transducer, connected to the aortic cannula via a T-connector positioned approximately 3 cm above the heart. Coronary perfusion pressure was monitored throughout the experiment and recorded either on a chart recorder (Gould Recorder 2200S) or a computerized recording system (PowerLab/4S, ADinstruments Pty Ltd, Australia). Only hearts with CPP ranging from 60 to 85 mmHg (in the absence of drugs) were used in the study. […]

[4] = intracoronary infusion 1 μg/kg/min
[5] = rat isolated perfused hearts, bolus into perfusion line
[6] = intracoronary infusion 30 μg/kg/min
[7] = pig striatal membranes, tritiated ZM 241385 2 nM, 23 C 2 h, read-out: A2a Ki
[8] = intracoronary infusion 2 μg/kg/min

CCCCCCC#Cc1nc(N)c2ncn([C@@H]3O[C@H](CO)[C@@H](O)[C@H]3O)c2n1 [YT-146, reference compound]
CBF ("Fold Increase") above baseline, maximal (A2A AdoR [1]; [4]): 3.44 ± 0.47 fold | t0.9, time to 90% reversal of the increase in coronary blood flow (A2A AdoR [1]; [4]): 32.9 ± 5.6 min | t 0.5, time to 50% reversal of the increase in coronary conductance (A2A adenosine receptor; [5]): 17.7 ± 1.0 min | t 0.9, time to 90% reversal of the increase in coronary conductance (A2A adenosine receptor; [5]): 28.5 ± 4.0 min

Nc1nc(-c2cnn(Cc3ccccc3)c2)nc2c1ncn2[C@@H]1O[C@H](CO)[C@@H](O)[C@H]1O [Compound 12, (4S,2R,3R,5R)-2-{6-amino-2-[1-benzylpyrazol-4-yl]purin-9-yl}-5-(hydroxymethyl)oxolane-3,4-diol]
CBF ("Fold Increase") above baseline, maximal (A2A AdoR [1]; [6]): 3.78 ± 0.70 fold | t0.5, time to 50% reversal of the increase in coronary blood flow (A2A AdoR [1]; [6]): 2.3 ± 0.6 min | t0.9, time to 90% reversal of the increase in coronary blood flow (A2A AdoR [1]; [6]): 9.6 ± 1.0 min | effect on coronary conductance (A2A AdoR [2]): concentration-dependent increase | relative potency in increasing coronary conductance (A2A AdoR [2]): about as potent as adenosine | t 0.5, time to 50% reversal of the increase in coronary conductance (A2A adenosine receptor): 4.1 ± 0.3 min | t 0.9, time to 90% reversal of the increase in coronary conductance (A2A adenosine receptor): 9.8 ± 1.4 min | Ki (A2A receptor): 6.67 ± 1.12 µM | Ki (human A2A AdoR; Binding Affinity Ki): 13.7 µM | Ki (human A2A AdoR; Binding Affinity pKi ± SEM): 13.5 µM | Ki (human A1 AdoR; read-out: Binding Affinity Ki, CHO-hA1AR): 6.35 µM | Ki (human A1 AdoR; read-out: Binding Affinity pKi ± SEM, CHO-hA1AR (converted)): 6.03 µM

CC(C)n1cc(-c2nc(N)c3ncn([C@@H]4O[C@H](CO)[C@@H](O)[C@H]4O)c3n2)cn1 [Compound 20, (4S,2R,3R,5R)-2-{6-amino-2-[1-(methylethyl)pyrazol-4-yl]purin-9-yl}-5-(hydroxymethyl)oxolane-3,4-diol]
Ki (A2A receptor; [7]): ~10 µM

CCNC(=O)[C@H]1O[C@@H](n2cnc3c(N)nc(NCCc4ccc(CCC(=O)O)cc4)nc32)[C@H](O)[C@@H]1O [CGS21680, reference compound]
t0.5, time to 50% reversal of the increase in coronary blood flow (A2A AdoR [1]; [8]): 9.7 ± 0.8 min | t0.9, time to 90% reversal of the increase in coronary blood flow (A2A AdoR [1]; [8]): 21.4 ± 0.8 min

Nc1nc(-c2cn[nH]c2)nc2c1ncn2[C@@H]1O[C@H](CO)[C@@H](O)[C@H]1O [Compound 23, (4S,2R,3R,5R)-2-(6-amino-2-pyrazol-4-ylpurin-9-yl)-5-(hydroxymethyl)oxolane-3,4-diol]
Ki (A2A receptor; [7]): > 100 µM

CC(C)(C)c1ccc(Cn2cc(-c3nc(N)c4ncn([C@@H]5O[C@H](CO)[C@@H](O)[C@H]5O)c4n3)cn2)cc1 [Compound 22, (4S,2R,3R,5R)-2-{6-amino-2-[1-(4-t-butylbenzyl)pyrazol-4-yl]purin-9-yl}-5-(hydroxymethyl)oxolane-3,4-diol]
Ki (A2A receptor; [7]): 7.68 µM

CCCCC#Cc1nc(N)c2ncn([C@@H]3O[C@H](C(=O)NCC)[C@@H](O)[C@H]3O)c2n1 [HENECA, reference compound]
t 0.5, time to 50% reversal of the increase in coronary conductance (A2A adenosine receptor; [5]): 28.6 ± 1.1 min | t 0.9, time to 90% reversal of the increase in coronary conductance (A2A adenosine receptor; [5]): 32.8 ± 3.1 min

Nc1nc(-c2cnn(CCCc3ccccc3)c2)nc2c1ncn2C1O[C@H](CO)[C@@H](O)[C@H]1O (stereo partly drawn) [Compound 21, (4S,2R,3R,5R)-2-{6-amino-2-[1-(3-phenylpropyl)pyrazolyl-4-yl]purin-9-yl}-5-(hydroxymethyl)oxolane-3,4-diol]
t 0.5, time to 50% reversal of the increase in coronary conductance (A2A adenosine receptor; [5]): 8.3 ± 0.4 min | t 0.9, time to 90% reversal of the increase in coronary conductance (A2A adenosine receptor; [5]): 12.6 ± 0.4 min | Ki (A2A receptor; [7]): 6.13 ± 0.582 µM

Cn1cc(-c2nc(N)c3ncn([C@@H]4O[C@H](CO)[C@@H](O)[C@H]4O)c3n2)cn1 [Compound 19, (4S,2R,3R,5R)-2-[6-amino-2-(1-methylpyrazol-4-yl)purin-9-yl]-5-(hydroxymethyl)oxolane-3,4-diol]
Ki (A2A receptor; [7]): > 10 µM

Nc1nc(N/N=C/C2CCCCC2)nc2c1ncn2[C@@H]1O[C@H](CO)[C@@H](O)[C@H]1O [WRC-0470, reference compound]
t0.5, time to 50% reversal of the increase in coronary blood flow (A2A AdoR [1]; [4]): 9.5 ± 0.8 min | t0.9, time to 90% reversal of the increase in coronary blood flow (A2A AdoR [1]; [4]): 22.5 ± 1.6 min | EC50 (A2A AdoR [2]): 0.0006 ± 0.0002 µM | effect on coronary conductance (A2A AdoR [2]): concentration-dependent increase | t 0.5, time to 50% reversal of the increase in coronary conductance (A2A adenosine receptor): 21.9 ± 0.9 min | t 0.9, time to 90% reversal of the increase in coronary conductance (A2A adenosine receptor): 27.9 ± 1.4 min | EC50 (A2A AdoR [3]): 0.0024 ± 0.0011 µM

CC(C)n1cc(-c2nc(N)c3ncn([C@@H]4O[C@H](CO[Si](C)(C)C(C)(C)C)[C@@H](O[Si](C)(C)C(C)(C)C)[C@H]4O[Si](C)(C)C(C)(C)C)c3n2)cn1 [Compound 16, 9-{(2R,3R,4R,5R)-3,4-bis(1,1,2,2-tetramethyl-1silapropoxy)-5-[(1,1,2,2-tetramethyl-1-silapropoxy)methyl]oxolan-2-yl}-2-[1-(1-methylethyl)pyrazol 4-yl]purine-6-ylamine]
A2A affinity (human A2A AdoR; conclusion of Example 5): low affinity A2A agonist
